Results reported in patent publication US9012446B2, “Amino-oxazines and amino-dihydrothiazine compounds as beta-secretase modulators and methods of use” (Amgen Inc., priority 2010, dated 2015).
Read-outs that look alike come from different tables or passages of the source.

Legend:
Aβ40 = assay: In vitro BACE cell-based assay (Aβ40 sandwich ELISA, cells stably expressing APP)
Summary of the method: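 APP-stably-expressing cells, grown 24 h in DMEM/10% FBS, received 10-point compound doses starting at 100 μM or 10 μM (0.1% DMSO final). Secreted Aβ40 in supernatants measured by sandwich ELISA with time-resolved europium fluorescence; IC50 from percent inhibition versus concentration.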

BACE = BACE (Homo sapiens, UniProt P56817); assay: In vitro enzymatic BACE FRET assay; assay type: biochemical; settings: average IC50, enzyme assay; read-out: BACE 1 FRET assay
Summary of the method: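 BACE (0.2 nM) preincubated 1 h with serially diluted inhibitors in 0.05 M acetate pH 4.2, 10% DMSO, 100 uM genapol. FRET peptide substrate (50 nM) added, 1 h incubation, then stopped with Tris to neutral pH. Fluorescence from cleavage read at […].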

[1] = Homo sapiens, HEK293, average IC50, read-out: HEK cell assay
[2] = Homo sapiens, HEK293, average IC50, cell assay, HEK cells

BACE, sequence (P56817 46-501, species assumed): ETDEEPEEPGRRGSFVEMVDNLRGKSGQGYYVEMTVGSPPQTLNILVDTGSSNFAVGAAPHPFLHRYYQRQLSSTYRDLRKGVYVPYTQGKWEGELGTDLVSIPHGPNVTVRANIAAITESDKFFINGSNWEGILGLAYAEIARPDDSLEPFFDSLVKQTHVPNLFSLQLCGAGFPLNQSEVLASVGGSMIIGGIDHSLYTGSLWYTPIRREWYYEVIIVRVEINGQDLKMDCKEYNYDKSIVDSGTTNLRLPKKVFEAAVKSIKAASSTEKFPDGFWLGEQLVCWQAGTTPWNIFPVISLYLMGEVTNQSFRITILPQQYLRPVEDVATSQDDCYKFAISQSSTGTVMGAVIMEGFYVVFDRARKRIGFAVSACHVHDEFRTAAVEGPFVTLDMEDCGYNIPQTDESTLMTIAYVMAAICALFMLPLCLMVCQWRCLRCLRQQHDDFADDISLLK

IC50 (Aβ40; [1]) [nM]	IC50 (BACE) [nM]	IC50 (Aβ40; [2]) [nM]	IC50 (Aβ40; average IC50, read-out: HEK cell assay) [nM]	SMILES
62.5	19.6	–	–	CC(C)(C)COc1cc2c(cn1)Oc1ccc(Br)cc1[C@@]21COCC(N)=N1 [compound 251]
5610	3350	–	–	NC1=N[C@]2(CCS1)c1cc(-c3cccnc3F)ccc1Oc1cnc(Cl)cc12 [compound 192]
11.1	2.6	–	–	NC1=N[C@@]2(CCS1)c1cc(-c3cccnc3F)ccc1Oc1cnc(-c3ccnc(F)c3)cc12 [compound 188]
–	5.7	3.7	–	NC1=N[C@@]2(CCO1)c1cc(-c3cncc(F)c3)ccc1Oc1cnc(C3=CCOCC3)cc12 [compound 143]
–	1.4	1.2	–	NC1=N[C@@]2(COC1)c1cc(-c3cccnc3F)ccc1Oc1ncc(N3CC[C@@H](F)C3)cc12 [Example 68, (S)-7-(2-fluoropyridin-3-yl)-3-((R)-3-fluoropyrrolidin-1-yl)-2′,6′-dihydrospiro[chromeno[2,3-b]pyridine-5,3′-[1,4]oxazin]-5′-amine]
–	14.6	45.9	–	NC1=NC2(CCO1)c1cc(-c3cccnc3F)ccc1Oc1c2cc(-c2cccnc2F)nc1F (centres unmarked) [compound 101]
21.7	11.6	–	–	NC1=N[C@@]2(CCO1)c1cc(-c3cccnc3F)ccc1Oc1ncc(C3=CCCOC3)cc12 [compound 268]
–	43	121	–	CC1(COc2cc(F)c3c(c2)[C@@]2(COCC(N)=N2)c2cc(-c4cccnc4F)ccc2O3)COC1 [compound 82]
–	2	1.3	–	CC1(C#Cc2cnc3c(c2)[C@]2(COCC(N)=N2)c2cc(-c4cccnc4F)ccc2O3)COC1 [compound 87]
2530	892	–	–	NC1=N[C@]2(CCO1)c1cc(-c3cccnc3F)ccc1Oc1c(F)cc(N3CC[C@@H](F)C3)cc12 [compound 177]
–	0.5	1.5	–	NC1=N[C@@]2(COC1)c1cc(-c3cncc(F)c3)ccc1Oc1cnc(-c3cncc(F)c3)cc12 [compound 112]
–	0.3	0.4	–	NC1=N[C@@]2(COC1)c1cc(-c3cncnc3)ccc1Oc1c(F)cc(C3=CCCOC3)cc12 [compound 133]
–	0.5	1.1	–	NC1=N[C@@]2(COC1)c1cc(-c3cncnc3)ccc1Oc1cnc(-c3ccnc(F)c3)cc12 [compound 78]
–	6.2	4.2	–	NC1=N[C@@]2(CCO1)c1cc(-c3cncc(F)c3)ccc1Oc1cnc(-c3cncc(F)c3)cc12 [compound 142]
392	90.8	–	–	NC1=N[C@@]2(CCS1)c1cc(-c3cccnc3F)ccc1Oc1cnc(Cl)cc12 [compound 199]
–	52.4	268	–	NC1=N[C@]2(COC1)c1cc(-c3cccnc3F)ccc1Oc1cnc(-c3ccnc(F)c3)cc12 [compound 70]
–	1.2	0.6	–	CC(C)(C)C#Cc1cnc2c(c1)[C@]1(COCC(N)=N1)c1cc(-c3cncnc3)c(F)cc1O2 [compound 96]
–	140	628	–	NC1=N[C@]2(COC1)c1cc(-c3cccnc3F)ccc1Oc1c(F)cc(-c3ccnc(F)c3)cc12 [36B]
3.2	3.7	–	–	NC1=N[C@@]2(COC1)c1cc(-c3cc(F)ccc3F)ccc1Oc1ncc(C3CCOCC3)cc12 [compound 215]
0.9	0.5	–	–	CC(C)COc1cc2c(cn1)Oc1ccc(-c3cncc(F)c3)cc1[C@@]21COCC(N)=N1 [compound 254]
–	238	108	–	NC1=N[C@]2(CCO1)c1cc(-c3cccnc3F)ccc1Oc1cnc(-c3cncc(F)c3)cc12 [compound 152]
–	7	–	15.4	NC1=N[C@]2(CCO1)c1cc(-c3cccnc3F)ccc1Oc1c(F)cc(-c3ccnc(F)c3)cc12 [compound 183]

IC50 (Aβ40; [1]) [nM]	IC50 (BACE) [nM]	IC50 (Aβ40; [2]) [nM]	IC50 (Aβ40; average IC50, read-out: HEK cell assay) [nM]	SMILES
–	12.8	6.9	–	CC(C)(C)C#Cc1cc2c(cn1)Oc1ccc(-c3cncc(F)c3)cc1[C@@]21CCOC(N)=N1 [compound 139]
3280	2390	–	–	NC1=N[C@]2(CCS1)c1cc(-c3cccnc3F)ccc1Oc1cnc(-c3ccnc(F)c3)cc12 [compound 189]
0.3	0.8	–	–	NC1=N[C@@]2(CCO1)c1cc(-c3cccnc3)ccc1Oc1c2cc(-c2cncc(F)c2)nc1F [compound 231]
2820	5190	–	–	NC1=N[C@]2(CCO1)c1cc(-c3cccnc3F)ccc1Oc1c(F)cc(N3CCOCC3)cc12 [compound 179]
–	17.3	109	–	NC1=N[C@@]2(COC1)c1cc(Br)ccc1Oc1c2cc(N2CCC(F)(F)CC2)nc1F [compound 128]
4	1.2	–	–	CC(C)Oc1cc2c(cn1)Oc1ccc(-c3cccnc3F)cc1[C@@]21COCC(N)=N1 [compound 259]
–	0.7	0.9	–	NC1=N[C@@]2(COC1)c1cc(-c3cccnc3F)ccc1Oc1cnc(C3CCOCC3)cc12 [Example 34, (S)-7-(2-fluoropyridin-3-yl)-3-(tetrahydro-2H-pyran-4-yl)-2′,6′-dihydrospiro[chromeno[2,3-c]pyridine-5,3′-[1,4]oxazin]-5′-amine]
6.1	3.2	–	–	CC(C)(C)C#Cc1ccc2c(c1)[C@@]1(COCC(N)=N1)c1cc(C3=CCOCC3)cnc1O2 [compound 214]
32.1	9.4	–	–	CC1(COc2cc(F)c3c(c2)[C@]2(COCC(N)=N2)c2cc(N4CCC(F)(F)CC4)ccc2O3)COC1 [Example 46, (S)-7′-(4,4-difluoropiperidin-1-yl)-4′-fluoro-2′-((3-methyloxetan-3-yl)methoxy)-2,6-dihydrospiro[[1,4]oxazine-3,9′-xanthen]-5-amine]
–	0.6	1.9	–	NC1=N[C@@]2(COC1)c1cc(-c3cc(Cl)ccc3F)ccc1Oc1ncc(N3CC[C@@H](F)C3)cc12 [compound 92]
–	0.7	2.5	–	CC#Cc1cncc(-c2ccc3c(c2)[C@@]2(COCC(N)=N2)c2cc(C4=CCOCC4)cc(F)c2O3)c1 [compound 131]
1970	922	–	–	NC1=N[C@]2(CCS1)c1cc(-c3cccnc3F)ccc1Oc1cnc(C3=CCCOC3)cc12 [compound 195]
–	0.3	1.6	–	NC1=N[C@@]2(COC1)c1cc(-c3cnccc3F)ccc1Oc1cnc(-c3ccc(F)c(F)c3)cc12 [compound 117]
–	419	273	–	CC(C)(C)C#Cc1cnc2c(c1)[C@@]1(COCC(N)=N1)c1cc(-c3cncnc3)c(F)cc1O2 [compound 97]
–	0.6	0.6	–	NC1=N[C@@]2(CCO1)c1cc(-c3cccnc3F)ccc1Oc1c2cc(C2=CCOCC2)nc1F [compound 108]
–	1.3	1.3	–	NC1=N[C@@]2(COC1)c1cc(-c3cc(Cl)ccc3F)ccc1Oc1ncc(N3CC4CCC(C3)O4)cc12 [compound 94]
42	32.8	–	–	NC1=N[C@@]2(COC1)c1cc(-c3cncc(F)c3)ccc1Oc1cnc(Cl)cc12 [compound 257]
11.2	2.8	–	–	CC(C)(F)COc1cc(F)c2c(c1)[C@]1(CCSC(N)=N1)c1cc(-c3cccnc3F)ccc1O2 [Example 204, (S)-4′-fluoro-2′-(2-fluoro-2-methylpropoxy)-7′-(2-fluoropyridin-3-yl)-5,6-dihydrospiro[[1,3]thiazine-4,9′-xanthen]-2-amine]
–	1130	1140	–	COc1ccc2c(c1)C1(CCSC(N)=N1)c1cc(-c3cncnc3)ccc1O2 (centres unmarked) [compound 137]
0.1	0.4	–	–	NC1=N[C@@]2(COC1)c1cc(-c3cccnc3)ccc1Oc1c2cc(C2=CCCOC2)nc1F [compound 246]
108	1580	–	–	N#Cc1cccc(-c2ccc3c(c2)[C@]2(CCOC(N)=N2)c2cc(C4=CCOCC4)nc(F)c2O3)c1 [compound 233]
